{"source": "patent US20240238319A1", "about": "“CEREAL-BASED COMPOSITIONS WITH A MIX OF GALACTO-OLIGOSACCHARIDES/FRUCTO- OLIGOSACCHARIDES AND USES THEREOF FOR IMPROVING IRON ABSORPTION” (COMPAGNIE GERVAIS DANONE, priority 2021, published 2024)", "origin": "cited, not measured here", "conditions": "when providing at least 80% of the WHO recommended dietary allowance"}
{"compound": "[Fe]", "note": "[iron]", "values": [{"measurement": "increased risk of diarrhea", "value": 15, "unit": "%"}]}
